Test results published in patent US20070015733A1, “Aryl Phosphate Derivatives of d4T having Activity Against Resistant HIV Strains” (Parker Hughes Institute, priority 1998, published 2007).
Where two headings read alike, the source gives them in different places.

Legend:
[1] = system: NRTI-resistant recombinant HIV-1 isolates; details: cited from earlier work
[2] = system: zidovudine-resistant primary clinical HIV-1 isolates in CD4-expressing HeLa cell line HT4-6C; test: Syncytial focus (plaque) formation assay in HT4-6C cells; type: cell-based; details: Human immunodeficiency virus 1, HeLa
Protocol: Plaque formation assays. The syncytial focus (plaque) assay permits quantitation of infectivity of HIV. In brief, a CD4-expressing HeLa cell line (HT4-6C) (AIDS Research and Reference Reagent Program, NIAID) is cultured in 24-well tissue culture plates at 2.5-3.0×10^4 cells/ml in the presence of virus inoculum (100 plaque forming units) and several concentrations of the antiviral agent. The virus was added first for a 2 hr incubation time prior to addition of the antiviral agents. […] Percent inhibition of plaque formation was calculated by comparing the plaque numbers from the test substance-treated infected cells with the plaque numbers from untreated infected cells (i.e., virus controls).

[3] = system: NRTI-resistant recombinant HIV-1 isolates; test: p24 assay, multi-NRTI-resistant recombinant HIV-1 clones; type: cell-based
[4] = system: NRTI-resistant recombinant HIV-1 isolates; test: Documented fold decreased susceptibility of recombinant HIV-1 clones; type: cell-based; details: for mean reduction in susceptibility: mean over 6 recombinant clones; for median reduction in susceptibility: median over 6 recombinant clones
[5] = system: peripheral blood mononuclear cells; test: Microculture tetrazolium assay (MTA) cytotoxicity in PBMNC; details: viability of PBMC
Protocol: Percent inhibition of viral replication was calculated by comparing the p24 and RT activity values from the test substance-treated infected cells with those from untreated infected cells. In parallel, the cytotoxicity of the compounds was examined using a microculture tetrazolium assay (MTA) of cell proliferation, as described.in the Zarling, Enrice, and Uckun articles Supra).
Cellular Assays of Anti-HIV Activity and Cytotoxicity. […] Percent viral inhibition was calculated by comparing the RT activity values from the test substance-treated infected cells with RT values from untreated infected cells (i.e., virus controls).
Antiviral susceptibility assays. Phenotypic drug susceptibility studies of HIV-1 isolates and strains were performed by measuring the production of the p24 gag protein in peripheral blood mononuclear cells (PBMC) from seronegative healthy volunteers in the presence of increasing concentrations of the anti-HIV agent using the quantitative Coulter HIV-1 p24 antigen ezyme immunoassay (EIA) and HIV-1 p24 Antigen Kinetic Standard (Beckman Coulter), as previously described (Uckun, 1998, Antimicrobial Agents and Chemotherapy 37(4): 835-38). Informed consent was obtained from the blood donors according to DHHS guidelines using consent forms approved by the Institutional Review Board. In brief, PBMC were cultured for 72 h in RPMI 1640 medium (Gibco) supplemented with 20% (vol/vol) heat-inactivated fetal bovine serum, 5% human interleukin-2 (Zeptometrix), 2 mM L-glutamine, 25 mM HEPES, 2 g/L NaHCO3, 100 U/ml penicillin/streptomycin (Gibco), 50 μg/ml gentamicin (Gibco), and 5 μg/ml phytohemagglutinin-P (PHA-P) (Sigma) for 24-72 hours prior to exposure to HIV at a multiplicity of infection of 0.001-0.1 during a 1-h adsorbtion period at 37±1° C. in a humidified 5-7% CO2 atmosphere. Subsequently, cells were cultured in 96-well microtiter plates (100 μl/well; 2×10^6 cells/ml, triplicate wells) in the presence of the anti-HIV agents at 6-7 different concentrations ranging from 0.0001 μM to 100 μM, and 25 μL aliquots of culture supernatants were removed from the wells on day 6 after infection for p24 EIA, as previously described (Uckun, 1998, Antimicrobial Agents and Chemotherapy, 37(4):835-38). Controls included uninfected and untreated cells (background control) and infected but untreated (virus control) cells. The p24 EIA utilizes a murine monoclonal antibody to HIV core protein used to coat microwell strips to which the antigen present in the test culture supernatant samples binds. Percent inhibition of viral replication was calculated by comparing the p24 values from the test substance-treated infected cells with p24 values from untreated infected cells (i.e., virus controls). The IC50 values were determined using the Statview statistics program (SAS Institute, Inc.). In parallel, the effects of various treatments on cell viability were also examined as previously described (Uckun, 1998, Antimicrobial Agents and Chemotherapy, 42:383-388). In brief, noninfected PBMC were treated with each compound for 5 days under identical experimental conditions. A microculture tetrazolium assay (MTA) was performed to quantitate cellular proliferation (Uckun, 1998, Antimicrobial Agents and Chemotherapy, 42:383-388).
In parallel, the cytotoxicity of the compounds was examined using a microculture tetrazolium assay (MTA) of cell proliferation, as described (in the Zarling, Enrice, and Uckun articles Supra).

human T-cell line MT2 = test: Cytotoxicity in MT2 cells; type: cell-based; details: even at a 100 μM concentration
Source text: Dozens of mutant strains have been characterized as resistant to NNRTI compounds, including L1001, K103N, V106A, E138K, Y181C and Y188H/L. In particular, the Y181 C and K103N mutants may be the most difficult to treat, because they are resistant to most of the NNRTIs compounds that have been examined. […] These clinical HIV-1 isolates also harbor additional RT gene mutations conferring NRTI-resistance and display a zidovudine-resistant phenotype (see Table 11 and Table 12).

[6] = twice daily hard gelatin capsules 25-100 mg/kg; cumulative dose levels as high as […]; cited from earlier work
[7] = Pharmacokinetics after intravenous or oral administration; type: in vivo, mice; details: for elimination half-life (t1/2) of the administered substance: intravenous administration
[8] = cited from earlier work
[9] = read-out: IC50, μM(Plaque Assay), Mean ± SE, mean over 9 zidovudine-resistant isolates
[10] = read-out: IC50, μM(Plaque Assay), isolate G190-6 (M41L, D67N, K70R, T215Y, K219Q)
[11] = read-out: IC50, μM(Plaque Assay), isolate G691-2 (mutations N.D.)
[12] = read-out: IC50, μM(Plaque Assay), isolate G704-2 (M41L, D67N, K70R, L210W, T215Y)
[13] = read-out: IC50, μM(Plaque Assay), isolate G780-1 (M41L, D67N, K70R, T215F, K219Q)
[14] = read-out: IC50, μM(Plaque Assay), isolate G890-1 (K20R, M41L, D67N, T69N, K70R, L210W, T215Y)
[15] = read-out: IC50, μM(Plaque Assay), isolate H112-2 (no RT mutation, ZDV-sensitive control)
[16] = read-out: IC50, μM(Plaque Assay), isolate J179-1 (M41L, D67N, L210W, T215Y)
[17] = read-out: IC50, μM(Plaque Assay), isolate M709-1 (L1210W, T215Y)
[18] = read-out: IC50, μM(Plaque Assay), isolate Q252-2 (M41L, L210W, T215Y)
[19] = read-out: IC50, μM(Plaque Assay), isolate U317-8 (M41L, L210W, T215Y)
[20] = Human immunodeficiency virus 1, read-out: IC50 (nM), p24, recombinant clone 1617-1 (151 complex)
[21] = Human immunodeficiency virus 1, read-out: IC50 (nM), p24, recombinant clone 4755-5
[22] = Human immunodeficiency virus 1, read-out: IC50 (nM), p24, recombinant clone 7295-1
[23] = Human immunodeficiency virus 1, read-out: IC50 (nM), p24, recombinant clone 7324-1
[24] = Human immunodeficiency virus 1, read-out: IC50 (nM), p24, recombinant clone 52252-1 in Table 18, 56252-1 in Tables 19 and 20 (K65R, 151 complex)
[25] = Human immunodeficiency virus 1, read-out: IC50 (nM), p24, recombinant clone printed 52534-1 in Table 18, 52534-2 in Tables 19 and 20 (69 insertion complex)
[26] = Human immunodeficiency virus 1, read-out: mean IC50 value, recombinant clones with 151 complex or 69 insertion complex (Group 3+Group 4)

SMILES	Fold decreased susceptibility ([1]; recombinant clone 1617-1)	Fold decreased susceptibility ([1]; recombinant clone 4755-5)	Fold decreased susceptibility ([1]; recombinant clone 7295-1)	Fold decreased susceptibility ([1]; recombinant clone 7324-1)	Fold decreased susceptibility ([1]; recombinant clone 52534-2)	Fold decreased susceptibility ([1]; recombinant clone 56252-1)	IC50 [2, 9]	IC50 [2, 10]	IC50 [2, 11]	IC50 [2, 12]	IC50 [2, 13]	IC50 [2, 14]	IC50 [2, 15]	IC50 [2, 16]	IC50 [2, 17]	IC50 [2, 18]	IC50 [2, 19]	IC50 [3, 20]	IC50 [3, 21]	IC50 [3, 22]	other results
Cc1cn([C@H]2C[C@H](N=[N+]=[N-])[C@@H](CO)O2)c(=O)[nH]c1=O [AZT, 3′-azido-3′-deoxythymidine]	261 fold	61 fold	9.9 fold	923 fold	719 fold	>1000 fold	3.9 ± 1 µM	10 µM	7.8 µM	5.7 µM	1.8 µM	3.6 µM	0.015 µM	2.6 µM	3 µM	2.8 µM	2 µM	320 nM	165 nM	137 nM	IC50 [3, 23]: > 1000 nM; IC50 [3, 24]: > 1000 nM; IC50 [3, 25]: > 1000 nM; IC50 [3, 26]: 773 ± 227 nM; mean reduction in susceptibility [4]: 495.7 fold; median reduction in susceptibility [4]: 490 fold
COC(=O)C(C)NP(=O)(OC[C@@H]1C=C[C@H](n2cc(C)c(=O)[nH]c2=O)O1)Oc1ccc(Br)cc1 (stereo partly shown) [Compound 1c, d4T-5′-[p-bromo-phenylmethoxyalaninyl phosphate]]	–	–	–	–	–	–	0.0794 ± 0.0187 µM	0.1 µM	0.06 µM	0.08 µM	0.015 µM	0.04 µM	0.015 µM	0.18 µM	0.08 µM	0.11 µM	0.03 µM	19.9 nM	6 nM	43 nM	CC50 [5]: > 100 µM; IC50 ([2]; read-out: mean IC50 value (plaque assay), mean over 9 zidovudine-resistant isolates): 0.0794 ± 0.0187 µM; cytotoxicity in MT2 cells (human T-cell line MT2): without any evidence of cytotoxicity; IC50 ([3]; Human immunodeficiency virus 1, read-out: IC50 (nM), Mean ± SE, Group B (n = 6) recombinant clones): 27.6 ± 7.9 nM; IC50 ([3]; Human immunodeficiency virus 1, read-out: IC50 (nM), median, Group B (n = 6)): 22.5 nM; IC50 [3, 23]: 13.7 nM; IC50 [3, 24]: 25 nM; IC50 [3, 25]: 57.9 nM; IC50 ([3]; Human immunodeficiency virus 1, read-out: IC50 (nM), range, Group B (n = 6)): 6 to 57.9 nM; IC50 [3, 26]: 34.3 ± 11.9 nM; tolerability of four-week treatment course [6]: very well tolerated; parent compound in blood ([7]; after oral administration): No parent d4T-5′-[p-bromophenyl methoxyalaninyl phosphate] was detectable; elimination half-life (t1/2) of the administered substance [7]: 3.5 min; toxicity on daily administration ([8]; intraperitoneally or orally for up to 8 consecutive weeks, cumulative dose levels as high as 6.4 g/kg): not associated with any detectable toxicity; acute or subacute toxicity ([8]; single intraperitoneal or oral bolus dose levels as high as 500 mg/kg): without any detectable acute or subacute toxicity
Cc1cn([C@H]2C=C[C@@H](CO)O2)c(=O)[nH]c1=O [d4T, 2′,3′-didehydro-2′,3′-dideoxythymidine]	11 fold	3.9 fold	1.9 fold	2.6 fold	9 fold	20 fold	–	–	–	–	–	–	–	–	–	–	–	–	–	–	mean reduction in susceptibility [4]: 8.1 fold; median reduction in susceptibility [4]: 6.5 fold; elimination half-life (t1/2) of the administered substance [7]: 30.3 min
